The text below walks through data of patent US10030016B2 (Sunesis Pharmaceuticals, Inc., priority 2009, dated 2018).

Assay [1] concerns phospho-akt (Thr308) in PC-3 cells. In words: Inhibition of phospho-akt (Thr308) in PC-3 cells, MSD phospho-akt 308 ELISA kit. The following applies: Homo sapiens, 2 hours, no serum, read-out: EC50. Type of assay: cell-based. The gist of the method:
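Electrochemiluminescent MSD ELISA of Thr308-phosphorylated Akt after a 2 h serum-free compound exposure of PC-3 cells (15,000/well, plated overnight). Controls: DMSO (high), 5 μM wortmannin (low). Lysate binding overnight at 4 °C; detection antibody 1 h at room temperature.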
On the technique in general: ELISA stands for enzyme-linked immunosorbent assay.

A further assay has as its target PDK1 (Homo sapiens (Human), UniProt O15530). In words: PDK1 kinase assay (coupled PDK1/AKT/FAM-crosstide assay, IMAP fluorescence polarization). The class given is biochemical. The gist of the method:
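GST-tagged human PDK1 (aa 51-359, 0.75 nM) from insect cells activated unphosphorylated GST-AKT2 (aa 140-467–PIFtide fusion, 10 nM), which phosphorylated 100 nM FAM-crosstide; 40 μM ATP, pH 7.2 Tris/MgCl2, 30 min at 25° C. IMAP fluorescence polarization read-out; ΔmP versus compound concentration fitted with a 4-parameter curve.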
(Fluorescence polarisation rises when a labelled molecule tumbles more slowly, as on binding a larger partner.)

Where [2] appears, read: inhibition of P308 Akt in PC-3 cells, MSD.
Setting [3] is: inhibition of phospo-PDK1 in vitro.
Where [4] appears, read: inhibition of P308 Akt in PC-3 cells using MSD.

Structures can show the parent of a compound that is named as a salt. Where two headings read alike, the source gives them in different places. Where only a bound is given, the exact number is not on record here.

In general, EC50 refers to the concentration that produces a half-maximal response. A word on the IC50: it is the concentration that gives 50% inhibition. A low value points to greater potency.

PDK1, sequence (O15530 51-359): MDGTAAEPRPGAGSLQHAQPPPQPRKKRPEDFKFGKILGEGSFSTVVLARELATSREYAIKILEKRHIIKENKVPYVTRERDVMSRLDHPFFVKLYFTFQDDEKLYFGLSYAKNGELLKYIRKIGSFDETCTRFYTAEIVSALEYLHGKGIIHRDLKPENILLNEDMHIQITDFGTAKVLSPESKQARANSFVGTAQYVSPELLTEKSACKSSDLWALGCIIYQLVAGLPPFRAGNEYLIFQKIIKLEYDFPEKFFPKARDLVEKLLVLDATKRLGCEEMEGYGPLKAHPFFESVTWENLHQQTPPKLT

Turning to `C[C@H](NC(=O)c1cccnc1NCc1ccc(-c2cnc3[nH]ncc3c2)cc1)c1ccc(F)c(F)c1` [Example 2.39, N-[(S)-1-(3,4-Difluoro-phenyl)-ethyl]-2-[4-(1H-pyrazolo[3,4-b]pyridin-5-yl)benzyl-amino]-nicotinamide], the EC50 in assay [1] (setting [2]) was less than 1000 nM. Also, the IC50 at PDK1 (setting [3]) was less than 100 nM.

For `C[C@H](NC(=O)c1cc(C2=CCOC2)cnc1NCc1ccc(-c2cn(C)c3ncnc(N)c23)cc1)c1ccc(F)cc1` [Example 248, (S)-2-(4-(4-amino-7-methyl-7H-pyrrolo[2,3-d]pyrimidin-5-yl)benzylamino)-5-(2,5-dihydrofuran-3-yl)-N-(1-(4-fluorophenyl)ethyl) nicotinamide], the half-maximal effective concentration (EC50) in assay [1] (setting [4]) is less than 1000 nM. On PDK1 (inhibition of PDK1 in vitro), this molecule showed an IC50 of less than 100 nM.

`O=C(NCc1ccc(F)cc1)c1cccnc1NCc1cccc(-c2c[nH]c3ncccc23)c1` [Example 1.6, 2-(3-(1H-pyrrolo[2,3-b]pyridin-3-yl)benzylamino)-N-(4-fluorobenzyl)nicotinamide]: the EC50 in assay [1] (setting [2]) was in the range of 1000 to 10000 nM. The IC50 at PDK1 (setting [3]) is less than 100 nM.

Regarding `CC(NC(=O)c1cccnc1NCc1ccc(-c2ccc3ncnc(N)c3c2)s1)c1ccc(F)c(F)c1` (centres unmarked) [Example 3.19, 2-({[5-(4-aminoquinazolin-6-yl)thiophen-2-yl]methyl}amino)-N-[1-(3,4-difluorophenyl)ethyl] pyridine-3-carboxamide (TFA salt)], the concentration for a half-maximal effect (EC50) in assay [1] (PC-3, 2 h, inhibition of P308 Akt in PC-3 cells, MSD) was greater than 10000 nM. The IC50 against PDK1 (setting [3]) lay within 100 to 1000 nM.

As to `CC(C)Oc1cc(CNc2ncccc2C(=O)NCc2ccc(F)c(F)c2)cc(-c2c[nH]c3ncc(-c4ccc[nH]4)cc23)c1` [Example 335, 2-(3-(5-(1H-pyrrol-2-yl)-1H-pyrrolo[2,3-b]pyridin-3-yl)-5-isopropoxybenzylamino)-N-(3,4-difluorobenzyl) nicotinamide], the concentration for a half-maximal effect (EC50) in assay [1] (setting [4]) was greater than 10000 nM. The same molecule returned an IC50 on PDK1 (inhibition of PDK1 in vitro) of less than 100 nM.

As to `O=C(NCc1ccc(F)c(F)c1)c1cccnc1NCc1ccc(-c2ccn3ncnc3c2)s1` [Example 8.14.4, N-(3,4-difluorobenzyl)-2-({[5-([1,2,4]triazolo [1,5-a]pyridin-7-yl)thiophen-2-yl]methyl}amino)pyridine-3-carboxamide], in assay [1] (setting [2]), the EC50 is greater than 10000 nM. In addition, the IC50 against PDK1 (setting [3]) was 1000 to 5000 nM.

Take `Cc1nc2cc(-c3ccc(CNc4ncc(C#N)cc4C(=O)N[C@@H](C)c4ccc(F)cc4)cc3)cnc2[nH]1` [Example 138, (S)-5-cyano-N-(1-(4-fluorophenyl)ethyl)-2-(4-(2-methyl-3H-imidazo[4,5-b]pyridin-6-yl)benzylamino) nicotinamide]: the EC50 in assay [1] (setting [4]) is less than 1000 nM. Further, the IC50 against PDK1 (inhibition of PDK1 in vitro) was less than 100 nM.

In the case of `CN1CCN(Cc2cccc(NC(=O)c3cc(C(F)(F)F)cnc3NCc3ccc(-c4cnc5[nH]nc(N)c5c4)cc3)c2)CC1` [Example 440, 2-(4-(3-amino-1H-pyrazolo[3,4-b]pyridin-5-yl)benzylamino)-N-(3-((4-methylpiperazin-1-yl)methyl)phenyl)-5-(trifluoromethyl)nicotinamide], the half-maximal effective concentration (EC50) in assay [1] (setting [4]) lay in the range of 1000 to 10000 nM. The IC50 on PDK1 (inhibition of PDK1 in vitro) lay in the range of 100 to 1000 nM.

`C[C@H](NC(=O)c1cc(C#N)cnc1NCc1ccc(-c2ccc(NCCO)nc2)cc1)c1ccc(F)cc1` [Example 222, 5-Cyano-N-[(S)-1-(4-fluoro-phenyl)-ethyl]-2-{4-[6-(2-hydroxy-ethylamino)-pyridin-3-yl]-benzylamino}-nicotinamide]: the EC50 in assay [1] (setting [4]) was 1000 to 10000 nM. At PDK1 (inhibition of PDK1 in vitro), this molecule had an IC50 of 100 to 1000 nM.

`C[C@H](NC(=O)c1cccnc1NCCOc1ccc2c(c1)NC(=O)/C2=C\c1cnc[nH]1)c1ccc(F)c(F)c1` [Example 19.2, (S,Z)-2-(2-(3-((1H-imidazol-5-yl)methylene)-2-oxoindolin-6-yloxy)ethylamino)-N-(1-(3,4-difluorophenyl)ethyl)nicotinamide]: the EC50 in assay [1] (setting [2]) is less than 1000 nM. Besides, at PDK1 (setting [3]), the 50% inhibitory concentration (IC50) was less than 100 nM.

As to `C[C@H](NC(=O)c1nc(C#N)cnc1NCc1ccc(-c2cnc3[nH]nc(N)c3c2)cc1)c1ccc(F)cc1` [Example 32, (S)-3-(4-(3-amino-1H-pyrazolo[3,4-b]pyridin-5-yl)benzylamino)-6-cyano-N-(1-(4-fluorophenyl)ethyl) pyrazine-2-carboxamide], the EC50 in assay [1] (setting [2]) is less than 1000 nM. The 50% inhibitory concentration (IC50) against PDK1 (setting [3]) was less than 100 nM.

On to `CC(N)CCc1nc(-c2ccc(CNc3ncc(C#N)nc3C(=O)N[C@@H](C)c3ccc(F)c(F)c3)cc2)cnc1N` (stereo partly drawn) [Example 87, 3-{4-[5-Amino-6-(3-amino-butyl)-pyrazin-2-yl]-benzylamino}-6-cyano-pyrazine-2-carboxylic acid [(S)-1-(3,4-difluoro-phenyl)-ethyl]-amide], for which the EC50 in assay [1] (setting [4]) is less than 1000 nM. The IC50 on PDK1 (inhibition of PDK1 in vitro) was less than 100 nM.

For `Nc1n[nH]c2ncc(-c3ccc(CNc4ncc(C(F)(F)F)cc4C(=O)Nc4cccc(F)c4)cc3)cc12` [Example 262, 2-(4-(3-amino-1H-pyrazolo [3,4-b]pyridin-5-yl)benzylamino)-N-(3-fluorophenyl)-5-(trifluoromethyl) nicotinamide], the EC50 in assay [1] (setting [4]) is less than 1000 nM. The molecule further returned a half-maximal inhibitory concentration (IC50) at PDK1 (inhibition of PDK1 in vitro) of less than 100 nM.

With `C[C@H](NC(=O)c1cc(C#N)cnc1NCc1ccc(Oc2ccnc(N)c2)cc1)c1ccc(F)cc1` [Example 388], the EC50 in assay [1] (setting [4]) is greater than 10000 nM. Besides, on PDK1 (inhibition of PDK1 in vitro), the IC50 was greater than 5000 nM.

On to `Nc1ncc(-c2ccc(CNc3ncc(C(F)(F)F)cc3C(=O)Nc3ccc(F)cc3)cc2)nc1CC1CCNC1` (centres unmarked) [Example 186, 2-[4-(5-Amino-6-pyrrolidin-3-ylmethyl-pyrazin-2-yl)-benzylamino]-N-(4-fluoro-phenyl)-5-trifluoromethyl-nicotinamide], for which the EC50 in assay [1] (setting [4]) was less than 1000 nM. For the same molecule, the concentration for half-maximal inhibition (IC50) at PDK1 (inhibition of PDK1 in vitro) was less than 100 nM.

Turning to `Nc1ncnc2c1c(-c1ccc(CNc3ncc(C(F)(F)F)cc3C(=O)Nc3ccc(F)cc3)cc1)cn2CCCCO` [Example 404, 2-(4-(4-amino-7-(4-hydroxybutyl)-7H-pyrrolo [2,3-d]pyrimidin-5-yl)benzylamino)-N-(4-fluorophenyl)-5-(trifluoromethyl)nicotinamide], the concentration for a half-maximal effect (EC50) in assay [1] (setting [4]) was in the range of 1000 to 10000 nM. The molecule further had an IC50 at PDK1 (inhibition of PDK1 in vitro) of less than 100 nM.

Take `O=C(NCc1ccc(F)c(F)c1)c1cccnc1NCCOc1ccc2[nH]c(=O)[nH]c2c1` [Example 16.2, N-(3,4-difluorobenzyl)-2-(2-(2-oxo-2,3-dihydro-1H-benzo[d]imidazol-5-yloxy)-ethylamino)nicotinamide]: the concentration giving a half-maximal response (EC50) in assay [1] (setting [2]) was 1000 to 10000 nM. The IC50 on PDK1 (setting [3]) was less than 100 nM.

As for `C[C@H](NC(=O)c1cccnc1NCc1ccc(-c2ccc3ncnc(N)c3c2)s1)c1ccc(F)cc1F` [Example 3.61, (S)-2-(((5-(4-aminoquinazolin-6-yl)thiophen-2-yl)methyl)amino)-N-(1-(2,4-difluorophenyl)ethyl) nicotinamide (TFA salt)], the EC50 in assay [1] (setting [2]) was greater than 10000 nM. Also, the IC50 on PDK1 (setting [3]) was in the range of 100 to 1000 nM.

For `CCNS(=O)(=O)c1cnc(NCc2ccc(-c3ccc4ncnc(N)c4c3)s2)c(C(=O)NCc2ccc(F)c(F)c2)c1` [Example 8.7.11, 2-({[5-(4-aminoquinazolin-6-yl)thiophen-2-yl]methyl}amino)-N-(3,4-difluorobenzyl)-5-(ethylsulfamoyl)pyridine-3-carboxamide], the half-maximal effective concentration (EC50) in assay [1] (setting [2]) was less than 1000 nM. The molecule also gave an IC50 against PDK1 (setting [3]) of 100 to 1000 nM.

For `O=C(NCc1ccc(F)c(F)c1)c1cccnc1NCc1ccc(-c2cnc3[nH]ncc3c2)nc1` [Example 327], the EC50 in assay [1] (setting [4]) was in the range of 1000 to 10000 nM. On PDK1 (inhibition of PDK1 in vitro), the IC50 was less than 100 nM.

For `C[C@H](NC(=O)c1cccnc1NCc1ccc(-c2ccc3ncnc(NC4CNC4)c3c2)s1)c1ccc(F)c(F)c1` [Example 4.36, 2-({5-[4-(Azetidin-3-ylamino)-quinazolin-6-yl]-thiophen-2-ylmethyl}-amino)-N-[(S)-1-(3,4-difluoro-phenyl)-ethyl]-nicotinamide], the EC50 in assay [1] (setting [2]) fell in the range of 1000 to 10000 nM. The molecule further displayed an IC50 on PDK1 (setting [3]) of less than 100 nM.

In the case of `Nc1n[nH]c2ncc(-c3ccc(CNc4ncc(C(F)(F)F)cc4C(=O)Nc4ccncc4)cc3)cc12` [Example 288, 2-(4-(3-amino-1H-pyrazolo [3,4-b]pyridin-5-yl)benzylamino)-N-(pyridin-4-yl)-5-(trifluoromethyl) nicotinamide], the EC50 in assay [1] (setting [4]) was in the range of 1000 to 10000 nM. Further, at PDK1 (inhibition of PDK1 in vitro), the IC50 was less than 100 nM.

In the case of `CCCNS(=O)(=O)c1cnc(NCc2ccc(-c3ccc4ncnc(N)c4c3)s2)c(C(=O)NC)c1` [Example 8.6.11, 2-(((5-(4-aminoquinazolin-6-yl)thiophen-2-yl)methyl)amino)-N-methyl-5-(N-propylsulfamoyl) nicotinamide], in assay [1] (setting [2]), the EC50 was greater than 10000 nM. Also, the IC50 against PDK1 (setting [3]) is greater than 5000 nM.

For `Nc1ncnc2ccc(-c3ccc(CNc4ncc(NC(=O)c5ccccc5)cc4C(=O)NCc4ccc(F)c(F)c4)s3)cc12` [Example 8.5.7, 2-({[5-(4-aminoquinazolin-6-yl)thiophen-2-yl]methyl}amino)-N-(3,4-difluorobenzyl)-5-[(phenylcarbonyl)amino] pyridine-3-carboxamide], the EC50 in assay [1] (setting [2]) is greater than 10000 nM. Further, the IC50 against PDK1 (setting [3]) lay in the range of 100 to 1000 nM.

On to `CCCNC(=O)c1cccnc1NCc1cccc(-c2c[nH]c3ncccc23)c1` [Example 1.9, N-propyl-2-{[3-(1H-pyrrolo[2,3-b]pyridin-3-yl)benzyl]amino}pyridine-3-carboxamide], for which the EC50 in assay [1] (setting [2]) was in the range of 1000 to 10000 nM. On PDK1 (setting [3]), this molecule came in with a concentration for half-maximal inhibition (IC50) greater than 5000 nM.
